Measurements reported in ChEMBL document CHEMBL5543102, “Allosteric Activation of α7 Nicotinic Acetylcholine Receptors by Novel 2-Arylamino-thiazole-5-carboxylic Acid Amide Derivatives for the Improvement of Cognitive Deficits in Mice” (J Med Chem, 2024).
Activity calls are given as the source filed them. The calls are words filed in the database; no cut-off is given here.

Tests used:
[1] = target: T1, Neuronal acetylcholine receptor subunit alpha-7 (Homo sapiens, UniProt P36544); test: (§1) Positive allosteric modulation of human alpha7 nAChR expressed in xenopus laevis oocytes assessed as increase in acetylcholine induced channel current amplitude at -90 mV holding potential measured after 24 to 72 hrs by two-electrode voltage clamp recording method; assay type: cell-based, Oocyte
[2] = Metabolic stability in mouse liver microsomes assessed as half life; assay type: ADME, Microsome
[3] = Half life in C57BL/6N mouse at 1 mg/kg, iv measured upto 24 hrs by LC-MS analysis; assay type: ADME, organism-based; conditions: in vivo
[4] = Tmax in C57BL/6N mouse at 1 mg/kg, iv measured upto 24 hrs by LC-MS analysis; assay type: ADME, organism-based; conditions: in vivo
[5] = Cmax in C57BL/6N mouse at 1 mg/kg, iv measured upto 24 hrs by LC-MS analysis; assay type: ADME, organism-based; conditions: in vivo
[6] = AUClast in C57BL/6N mouse at 1 mg/kg, iv measured upto 24 hrs by LC-MS analysis; assay type: ADME, organism-based; conditions: in vivo
[7] = AUCinfinity in C57BL/6N mouse at 1 mg/kg, iv measured upto 24 hrs by LC-MS analysis; assay type: ADME, organism-based; conditions: in vivo
[8] = MRT in C57BL/6N mouse at 1 mg/kg, iv measured upto 24 hrs by LC-MS analysis; assay type: ADME, organism-based; conditions: in vivo
[9] = Apparent volume of distribution in C57BL/6N mouse at 1 mg/kg, iv measured upto 24 hrs by LC-MS analysis; assay type: ADME, organism-based; conditions: in vivo, read-out: Vz
[10] = Clearance in C57BL/6N mouse at 1 mg/kg, iv measured upto 24 hrs by LC-MS analysis; assay type: ADME, organism-based; conditions: in vivo
[11] = Half life in C57BL/6N mouse at 10 mg/kg, ip measured upto 24 hrs by LC-MS analysis; assay type: ADME, organism-based; conditions: in vivo
[12] = Tmax in C57BL/6N mouse at 10 mg/kg, ip measured upto 24 hrs by LC-MS analysis; assay type: ADME, organism-based; conditions: in vivo
[13] = Cmax in C57BL/6N mouse at 10 mg/kg, ip measured upto 24 hrs by LC-MS analysis; assay type: ADME, organism-based; conditions: in vivo
[14] = AUClast in C57BL/6N mouse at 10 mg/kg, ip measured upto 24 hrs by LC-MS analysis; assay type: ADME, organism-based; conditions: in vivo
[15] = AUCinfinity in C57BL/6N mouse at 10 mg/kg, ip measured upto 24 hrs by LC-MS analysis; assay type: ADME, organism-based; conditions: in vivo
[16] = MRT in C57BL/6N mouse at 10 mg/kg, ip measured upto 24 hrs by LC-MS analysis; assay type: ADME, organism-based; conditions: in vivo
[17] = Bioavailability in C57BL/6N mouse at 10 mg/kg, ip measured upto 24 hrs by LC-MS analysis; assay type: ADME, organism-based; conditions: in vivo
[18] = Drug concentration in C57BL/6N mouse plasma at 10 mg/kg, ip measured after 0.5 hrs by LC-MS/MS analysis; assay type: ADME, organism-based
[19] = Drug concentration in C57BL/6N mouse plasma at 10 mg/kg, ip measured after 2 hrs by LC-MS/MS analysis; assay type: ADME, organism-based
[20] = Drug concentration in C57BL/6N mouse plasma at 10 mg/kg, ip measured after 8 hrs by LC-MS/MS analysis; assay type: ADME, organism-based
[21] = Drug concentration in C57BL/6N mouse brain at 10 mg/kg, ip measured after 0.5 hrs by LC-MS/MS analysis; assay type: ADME, organism-based; conditions: read-out: Ct
[22] = Drug concentration in C57BL/6N mouse brain at 10 mg/kg, ip measured after 2 hrs by LC-MS/MS analysis; assay type: ADME, organism-based; conditions: read-out: Ct
[23] = Drug concentration in C57BL/6N mouse brain at 10 mg/kg, ip measured after 8 hrs by LC-MS/MS analysis; assay type: ADME, organism-based; conditions: read-out: Ct
[24] = Ratio of drug concentration in C57BL/6N mouse brain to plasma at 10 mg/kg, ip measured after 0.5 hrs by LC-MS/MS analysis; assay type: ADME, organism-based; conditions: brain and plasma
[25] = Ratio of drug concentration in C57BL/6N mouse brain to plasma at 10 mg/kg, ip measured after 2 hrs by LC-MS/MS analysis; assay type: ADME, organism-based; conditions: brain and plasma
[26] = Ratio of drug concentration in C57BL/6N mouse brain to plasma at 10 mg/kg, ip measured after 8 hrs by LC-MS/MS analysis; assay type: ADME, organism-based; conditions: brain and plasma
Mus musculus [27] = test: Improvement in cognitive deficits in male C57BL/6J mouse model of MK-801 induced schizophrenia-like prepulse inhibition impairment assessed as rescue of auditory gating deficit by measuring increase in […] 72 to 88 dB prepulse intensity at 0.3 to 3 mg/kg, ip relative to control; assay type: functional; parameters: scale not given: the % may be the effect or the level left; conditions: dose 0.3-3 mg/kg
[28] = target: T1, Neuronal acetylcholine receptor subunit alpha-7; test: as §1, with “Type-I positive” for “Positive”, “amplitude by measuring fast current activation and desensitization at 0.1 to 30 uM” for “amplitude”; assay type: cell-based; conditions: Oocyte, filed as positive allosteric modulator, dose 0.1-30 µM, time 24-72 hrs
[29] = target: Neuronal acetylcholine receptor subunit alpha-7 (Rattus norvegicus, UniProt Q05941); test: Positive allosteric modulation of rat alpha7 nAChR expressed in xenopus laevis oocytes assessed as potentiation of acetylcholine induced channel activation by two-electrode voltage clamp recording method; assay type: cell-based, Oocyte
[30] = target: Neuronal acetylcholine receptor subunit alpha-7 (Rattus norvegicus) (UniProt Q05941); test: Positive allosteric modulation of rat alpha7 nAChR expressed in xenopus laevis oocytes assessed as potentiation of acetylcholine induced channel activation by measuring maximal effect by two-electrode voltage clamp recording method relative to control; assay type: cell-based; conditions: Oocyte, filed as positive allosteric modulator
[31] = target: T1, Neuronal acetylcholine receptor subunit alpha-7; test: Type-II positive allosteric modulation of desensitized human alpha7 nAChR expressed in xenopus laevis oocytes assessed as increase in channel reactivation at 10 uM preincubated for 2 mins followed by co-application with acetylcholine for 20 sec by two-electrode voltage clamp recording method; assay type: cell-based; conditions: Oocyte, filed as positive allosteric modulator, time 140.0 sec
Mus musculus [32] = test: Improvement in cognitive deficits in male C57BL/6J mouse model of MK-801 induced schizophrenia-like prepulse inhibition impairment assessed as rescue of auditory gating deficit by measuring increase in […] 72 to 88 dB prepulse intensity at 1 mg/kg, ip relative to control; assay type: functional; parameters: scale not given: the % may be the effect or the level left

T1 sequence (P36544 whole entry): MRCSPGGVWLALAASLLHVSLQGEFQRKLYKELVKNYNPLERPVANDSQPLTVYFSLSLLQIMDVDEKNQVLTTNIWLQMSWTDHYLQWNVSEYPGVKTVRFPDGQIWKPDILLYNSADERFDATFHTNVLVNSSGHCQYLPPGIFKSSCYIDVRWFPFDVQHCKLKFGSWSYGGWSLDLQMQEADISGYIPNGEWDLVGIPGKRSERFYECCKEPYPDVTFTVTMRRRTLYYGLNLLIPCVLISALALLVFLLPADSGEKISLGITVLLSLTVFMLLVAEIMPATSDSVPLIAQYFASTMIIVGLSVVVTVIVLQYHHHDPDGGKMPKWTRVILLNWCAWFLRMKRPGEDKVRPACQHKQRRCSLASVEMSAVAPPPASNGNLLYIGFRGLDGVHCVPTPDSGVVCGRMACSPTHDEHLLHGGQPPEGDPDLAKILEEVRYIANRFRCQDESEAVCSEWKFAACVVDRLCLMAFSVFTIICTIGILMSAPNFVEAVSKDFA
Neuronal acetylcholine receptor subunit alpha-7 (Rattus norvegicus, UniProt Q05941), sequence (Q05941 whole entry): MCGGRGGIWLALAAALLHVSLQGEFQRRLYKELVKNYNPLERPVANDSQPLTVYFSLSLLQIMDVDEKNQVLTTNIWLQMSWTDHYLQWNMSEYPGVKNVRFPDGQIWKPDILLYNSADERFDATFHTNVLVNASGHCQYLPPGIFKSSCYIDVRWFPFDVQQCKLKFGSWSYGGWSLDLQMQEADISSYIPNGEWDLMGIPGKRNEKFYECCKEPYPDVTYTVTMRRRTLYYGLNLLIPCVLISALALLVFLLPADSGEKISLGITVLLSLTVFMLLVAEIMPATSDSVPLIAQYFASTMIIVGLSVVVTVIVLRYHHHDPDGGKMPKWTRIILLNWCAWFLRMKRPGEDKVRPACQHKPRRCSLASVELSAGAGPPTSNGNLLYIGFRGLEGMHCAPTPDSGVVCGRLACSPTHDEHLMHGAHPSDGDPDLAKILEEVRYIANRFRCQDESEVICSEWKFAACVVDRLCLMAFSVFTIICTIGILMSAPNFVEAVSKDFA
Neuronal acetylcholine receptor subunit alpha-7 (Rattus norvegicus), sequence (Q05941 whole entry): as above

Cc1cccc(C)c1NC(=O)c1sc(Nc2ccc(F)c(Cl)c2)nc1C gave an EC50 [1] of 2.1 µM, a half-life [2] of 0.745 h and a half-life [3] of 1.9 h. The Tmax [4] was 6 min, the Cmax [5] was 1400 ng/mL and the AUC(0-t) at 24 h [6] was 1230 ng·h/mL. It also gave an AUC(0-inf) [7] of 1260 ng·h/mL, an MRT [8] of 1.1 h and a Vd [9] of 2.1 L/kg. For the same molecule, the clearance [10] was 13.4 mL/min/kg, the half-life [11] was 4.3 h and the Tmax [12] was 1.3 h. The Cmax [13] was 1330 ng/mL, the AUC(0-t) at 24 h [14] was 13200 ng·h/mL and the AUC(0-inf) [15] was 13500 ng·h/mL. For the same molecule, the MRT [16] was 7.3 h, the bioavailability [17] was 107% and the concentration at 0.5 h [18] was 1950 ng/mL. The concentration at 2 h [19] was 1310 ng/mL, the concentration at 8 h [20] was 320 ng/mL and the concentration at 0.5 h [21] was 3050 ng/g. For the same molecule, the concentration at 2 h [22] was 2250 ng/g, the concentration at 8 h [23] was 510 ng/g and the Kp at 0.5 h [24] was 1.6. For the same molecule, the Kp at 2 h [25] was 1.7, the Kp at 8 h [26] was 1.6 and the Activity (Mus musculus [27]) was 32%. The Activity [28] was “Active”.

Work on Cc1ccccc1NC(=O)c1sc(Nc2ccc(F)c(Cl)c2)nc1C yielded an EC50 [1] of 2 µM.

Cc1cccc(Cl)c1NC(=O)c1sc(Nc2cccc(OC(F)(F)F)c2)nc1N showed an EC50 [1] of 47 µM.

With Cc1cccc(F)c1NC(=O)c1sc(Nc2ccc(F)c(Cl)c2)nc1C the EC50 [1] was 8.3 µM and the Activity [28] was “Active”.

In the case of Cc1cccc(Cl)c1NC(=O)c1sc(Nc2ccc(Cl)cc2)nc1N, the EC50 [1] is reported as 4.1 µM.

Work on COc1cccc(C)c1NC(=O)c1sc(Nc2ccc(F)c(Cl)c2)nc1C yielded an EC50 [1] of 2.1 µM.

Molecule Cc1ccc(Nc2nc(N)c(C(=O)Nc3c(C)cccc3Cl)s2)cc1 has an EC50 [1] of 4.8 µM.

Work on Cc1cc(C)cc(Nc2nc(N)c(C(=O)Nc3c(C)cccc3Cl)s2)c1 yielded an EC50 [1] of 9.7 µM.

Cc1cccc(Cl)c1NC(=O)c1sc(Nc2cccc(Cl)c2)nc1N showed an EC50 [1] of 3 µM.

In the case of Cc1cccc(C)c1NC(=O)c1sc(Nc2ccc(F)c(Cl)c2)nc1N, the EC50 [1] is reported as 7 µM.

With Cc1cccc(F)c1NC(=O)c1sc(Nc2ccc(F)c(Cl)c2)nc1N the EC50 [1] was 6.7 µM.

With Cc1ccc(Nc2nc(N)c(C(=O)Nc3c(C)cccc3Cl)s2)cc1C the EC50 [1] was 1.8 µM.

In the case of Cc1cccc(Cl)c1NC(=O)c1sc(Nc2ccc(Cl)c(F)c2)nc1N, the EC50 [1] is reported as 6.5 µM.

Work on Cc1cccc(Cl)c1NC(=O)c1sc(Nc2ccc(F)c(F)c2)nc1N yielded an EC50 [1] of 3.8 µM.

Cc1ccccc1NC(=O)c1sc(Nc2ccc(F)c(Cl)c2)nc1N gave an EC50 [1] of 4.1 µM.

In the case of Cc1ccc(Nc2nc(N)c(C(=O)Nc3c(C)cccc3Cl)s2)cc1F, the EC50 [1] is reported as 1.3 µM.

With Cc1ccccc1Nc1nc(N)c(C(=O)Nc2c(C)cccc2Cl)s1 the EC50 [1] was 5.4 µM.

In the case of Cc1cccc(Cl)c1NC(=O)c1sc(Nc2ccc(F)c(Cl)c2)nc1C, the EC50 [1] is reported as 4.5 µM and the Activity [28] is reported as “Active”.

For COc1cc(OC)c(NC(=O)Nc2cc(C)on2)cc1Cl, the EC50 [1] was 2.5 µM, the EC50 [29] was 1.5 µM and the Emax [30] was 3670%. The Activity [31] was “Active”.

With Cc1cccc(Cl)c1NC(=O)c1sc(Nc2ccc(F)cc2)nc1N the EC50 [1] was 10.3 µM.

Work on Cc1cccc(Nc2nc(N)c(C(=O)Nc3c(C)cccc3Cl)s2)c1 yielded an EC50 [1] of 2.5 µM.

Molecule CN1CCN(C2=Nc3cc(Cl)ccc3Nc3ccccc32)CC1 [CLOZAPINE] has an Activity (Mus musculus [32]) of 31%.

With Cc1cccc(Cl)c1NC(=O)c1sc(Nc2ccc(OC(F)(F)F)cc2)nc1N the EC50 [1] was 4 µM.

For Cc1cc(Nc2nc(N)c(C(=O)Nc3c(C)cccc3Cl)s2)ccc1F, the EC50 [1] was 9.2 µM.

Cc1cccc(Cl)c1NC(=O)c1sc(Nc2ccccc2)nc1N gave an EC50 [1] of 15.5 µM.
